Assay results as given in PubChem BioAssay AID1053138 (Broad Institute, 2014).
Activity calls are given as the source filed them. How the calls were made is not given here.

Tests used:
[1] = Trib1 mRNA induction in HepG2 cells, dose response, cell-based, qPCR (AID 1053138); conditions: HepG2 Trib1 mRNA qPCR, 24 h; measured here: Trib1 mRNA max fold induction; stronger effect = higher value
[2] = tested on: HepG2 Trib1 mRNA qPCR, 24 h; test: as above

Compound | fold change [1] | AC50 [2]
CN1C(=O)c2cc(NC(=O)c3ccc(C(F)(F)F)cc3)ccc2OC[C@@H]2O[C@@H](CC(=O)NC3Cc4ccccc4C3)CC[C@@H]21 | 2.7 | 1.7 µM
CN1C(=O)c2cc(NC(=O)c3ccc(C(F)(F)F)cc3)ccc2OC[C@@H]2O[C@H](CC(=O)NC3Cc4ccccc4C3)CC[C@@H]21 | 3.7 | 0.31 µM
CN1C(=O)c2cc(NC(=O)c3ccc(C(F)(F)F)cc3)ccc2OC[C@@H]2O[C@H](CC(=O)NC3Cc4ccccc4C3)CC[C@H]21 | 1.3 | > 25 µM (inactive)
